# Columns and labels:
# [1] = tested on: urinary bladder cancer cell line RT‐4; test: Cell-based activity assay (western blot of acetylation levels); set-up: species or system human; details: RT-4 cells, 50 μM, 24 h, compounds irradiated (365 nm) prior to incubation
# Procedure: (§1) Reductive stability of 15 c, 15 f and 20 a in the presence of the cellular reductant glutathione (5 mM) was confirmed by HPLC analysis (Figure S5, Table S2). For the cell‐based activity assay, we illuminated the compounds solved in DMSO with UV light (365 nm) prior to incubation with the cells. […] As expected, 15 c and 15 f increased the levels of acetylated lysines H3K18 and H3K56, which are both affirmed substrates of Sirt2. In addition, we found H4K8 hyperacetylation even though this site is usually not affected by sirtuin catalysed deacetylation, indicating a further mode of action. […] In Figure 6, we show the relative results, whereby the acetylation product was related to total target protein and to the vehicle control. Again, we found an increase in acetylated histones induced by 15 c and 15 f which proves activity of these two compounds in living cells.
# Figure 6 Relative acetylation levels of protein targets after incubation with compounds at 50 μM for 24 h in urinary bladder cancer cell line RT‐4 (mean of n=2). […]
# Cell-Based Activity Assay
# To qualify inhibitory activity of compounds on sirtuins we used the western blot technique.
# Therefore, we used precast “Mini-Protean TGX Stain-Free Gels” and corresponding “Trans-Blot Turbo Transfer Pack Mini” PVDF membranes (Biorad, Germany). For sample preparation, […]
# Sirt2 in our cell line stock (Data not shown), obtained from “Deutsche Sammlung von Mikroorganismen und Zellkulturen” (DSMZ), Germany. Cells were grown in RPMI 1640 cell medium supplemented with 10% fetal bovine serum and 1% penicillin/streptomycin purchased from PAN Biotec, Germany and stored in a humidified incubator at 37 °C with 5% CO2 atmosphere. For sample preparation, cells were harvested with Trypsin/EDTA and counted in a Beckman’s Coulter Counter. In six well plates, […] were seeded out in 3 mL medium and let allow to attach for 24 h. Stock solutions of compounds (1000-fold) were prepared with DMSO and illuminated with UV light (365 nm) for 5 min. Then, cells were exposed to compounds at a final concentration of 50 µM and incubated for 24 h. Cells were detached with Trypsin/EDTA and washed with phosphate buffered saline (PBS) by centrifugation at 500 g for 5 min and resuspended in PBS. Cell pellets were lysed with a lysis buffer containing Tris […]
# and freshly added 1% protease inhibitor cocktail (Sigma Aldrich, Germany) on ice, followed by sonification for 30 minutes. The protein concentration was determined by the Bradford method against bovine serum albumin (BSA) as standard. Each slot of the precast gel was loaded with 30 µg protein followed by an electrophoretic separation and a transfer onto PVDF membranes.
# Blots were blocked with 10% non-fat milk powder in Tris-buffered saline containing 20 mM Tris, 145 mM NaCl and Tween 0.5% (TBST) for 2 h and incubated with primary antibody in 1:1000 dilutions (in TBST and 1% BSA) over night at 4 °C. After washing procedure, blots were incubated with secondary antibody conjugated with horse radish peroxidase (1:5000 in TBST and 1% BSA) for 2 h. All used antibodies were obtained from cell signalling (UK): anti ac.H3K9 […]
# anti ac.α-tubulin (#5335), anti α-tubulin (#2125) and anti rabbit-HRP (#7074). Target protein bands were detected with Clarity Western ECL Substrate (Biorad, Germany) and recorded at an Advanced Fluorescence Imager (INTAS, Germany). Band intensity was related to internal standard of the TGX Stain-Free gels as loading control.
# In order to verify the conformations of Z-15c and Z-15f obtained from our molecular docking experiments, a two-dimensional dihedral analysis was performed using MOE with 3-(2-phenyldiazenyl)-pyridine as reference compound. Both dihedrals were rotated by 360° in 5° steps. At each step, the potential energy was calculated with AMBER force field parameters and AM1-BCC partial charges applied. The diazenyl double bond of both compounds is nearly […]
# [2] = Reductive stability in the presence of glutathione (HPLC); format: physicochemical; details: GSH 5 mM, 24 h, ambient temperature, HPLC analysis
# Procedure: as §1
# Glutathione (GSH) is able to reduce certain azobenzenes yielding the respective hydrazines.
# Therefore, we determined the reductive stability of 15c, 15f and 20a prior to examination of the biological activity in a cell-based assay. […]
# Table S2: Relative percentages (%) of GSH and the respective photoisomers extracted from the HPLC analysis. Samples were analyzed right after addition of GSH (0 h) and after 24 h of incubation at ambient temperature. […]
# Fluorescence-Based Activity Assay (ZMAL-Assay)
# The influence of the synthesized compounds on the deacetylase activity of the class I sirtuins Sirt1–3 was determined in a homogenous fluorescence-based enzyme assay, using the artificial substrate Z-(Ac)Lys-AMC (ZMAL). […]
# The latter is subsequently cleaved by tryptic digestion, releasing 7-amino-4-methylcoumarin (AMC), excitation of which leads to a fluorescent read out (λex=390 nm; λem=460 nm). […]
# contribute to the fluorescence signal. Therefore, the fluorescence intensity is proportional to the activity of the respective sirtuin.
# After subtraction of the blank fluorescence signal (without enzyme) from the signal of the respective probe, the residual signal intensity is related to a 100 % conversion control (AMC),
structure (smiles),measurement,setting,value
CC(C)(C)OC(=O)NCc1ccc(/N=N/c2cncc(C(N)=O)c2)cc1 [15 c],H4K8 acetylation,[1],hyperacetylation
same,acetylation level of α-tubulin,[1],none of the compounds influenced
same,expression of total histone H3,[1],no effect
same,expression of total α-tubulin protein,[1],no effect
same,level of acetylated lysine H3K18,[1],increased
same,level of acetylated lysine H3K56,[1],increased
same,total H4,[1],slight increase
same,Reductive stability in the presence of glutathione,[2],confirmed
NC(=O)c1cncc(OCc2cccc(/N=N/c3ccc(OCc4ccccc4)cc3)c2)c1 [20 a],acetylation level of α-tubulin,[1],none of the compounds influenced
same,activity regarding the examined substrates (acetylation),[1],did not exert any activity
same,expression of total histone H3,[1],no effect
same,expression of total α-tubulin protein,[1],no effect
same,total H4,[1],slight increase
same,Reductive stability in the presence of glutathione,[2],confirmed
CCCCCCCCCC(=O)NCc1ccc(/N=N/c2cncc(C(N)=O)c2)cc1 [15 f],H4K8 acetylation,[1],hyperacetylation
same,acetylation level of α-tubulin,[1],none of the compounds influenced
same,expression of total histone H3,[1],no effect
same,expression of total α-tubulin protein,[1],no effect
same,level of acetylated lysine H3K18,[1],increased
same,level of acetylated lysine H3K56,[1],increased
same,total H4,[1],slight increase
same,Reductive stability in the presence of glutathione,[2],confirmed

# Source: article PMC7496931, “Activation of Sirtuin 2 Inhibitors Employing Photoswitchable Geometry and Aqueous Solubility” (Chemmedchem, 2020)
